Experimental data reported in patent publication US20240091203A1, “METHODS FOR TREATING NON-OBSTRUCTIVE HYPERTROPHIC CARDIOMYOPATHY” (Cytokinetics, Incorporated, priority 2022, published 2024).
“Also recorded” adds a separate entry of the source.

How the values were obtained:
Type in all cases: in vivo, human
[1] = Phase 1 plasma pharmacokinetics, food-effect cohort; conditions: 10 mg; for AUCinf / AUC24 / Cmax: geometric mean; for CL/F / t1/2: mean ± SD
Procedure: Food-effect cohort. […] Participants were randomized in a 1:1 ratio to 1 of 2 sequences: fasted/fed or fed/fasted.
Pharmacokinetic analyses. For all study groups, blood samples for PK assessment were obtained pre-dose, up to 12 times daily on day 1, and then at regular intervals throughout the study. Blood samples were collected according to the following schedule: SAD Cohorts: Day 1: pre-dose and 0.25, 0.5, 1, 1.5, 2, 2.5, 3, 4, 6, 8, 12, 16, 24, 36, 48, 72, 96, and 216 h post dose. […] CYPD6-PM Cohort: Day 1: pre-dose and 0.25, 0.5, 1, 1.5, 2, 2.5, 3, 4, 6, 8, 12, 16, 24, 36, 48, 72, 96, 216, 312, and 552 h post dose. Food-Effect Cohort: Day 1: pre-dose and 0.25, 0.5, 1, 1.5, 2, 2.5, 3, 4, 6, 8, 12, 16, 24, 36, 48, 72, 96, 144, and 216 h post dose. Standard non-compartmental methods were used to calculate PK parameters using Phoenix® WinNonlin® Version 7.0; actual sample collection times were utilized.

[2] = Phase 1 plasma pharmacokinetics, CYP2D6 poor metabolizer cohort; conditions: single 10 mg
Procedure: CYP2D6 poor metabolizer cohort.
CYP2D6 genotypes were determined at screening for all study participants; those identified as CYP2D6-PMs were excluded from the SAD and MAD cohorts but were invited to participate in the CYP2D6-PM cohort. The first individual in the CYP2D6-PM cohort was dosed after the SAD 25-mg cohort (FIG. 2). […] Nine participants were randomized (7:2) with a sentinel dosing group consisting of the first 2 participants treated.
(§1) Pharmacokinetic analyses. For all study groups, blood samples for PK assessment were obtained pre-dose, up to 12 times daily on day 1, and then at regular intervals throughout the study. Blood samples were collected according to the following schedule: SAD Cohorts: Day 1: pre-dose and 0.25, 0.5, 1, 1.5, 2, 2.5, 3, 4, 6, 8, 12, 16, 24, 36, 48, 72, 96, and 216 h post dose. MAD Cohorts (14-day Dosing): Day 1: pre-dose and 0.25, 0.5, 1, 1.5, 2, 2.5, 3, 4, 6, 8, and 12 h post dose; Days 2, 4, 5, 6, and 9: pre-dose (corresponding to trough samples following dosing on days 1, 3, 4, 5, and 8) and 1.5 h post dose; Days 3, 7, 8, 10, 11, 12, and 13: pre-dose (corresponding to trough samples following dosing on days 2, 6, 7, 9, 10, 11, and 12); Day 14: pre-dose and 0.25, 0.5, 1.5, 2, 2.5, 3, 4, 6, 8, 12, 16, 24, 36, 48, 72, and 168 h post dose. MAD Cohort (17-Day Dosing): Day 1: pre-dose and 0.25, 0.5, 1, 1.5, 2, 2.5, 3, 4, 6, 8, and 12 h post dose; Days 2, 4, 5, 6, and 9: pre-dose (corresponding to trough samples following dosing on days 1, 3, 4, 5, and 8) and 1.5 h post dose; Days 3, 7, 8, 10, 11, 12, 13, 14, 15, and 16: pre-dose (corresponding to trough samples following dosing on days 2, 6, 7, 9, 10, 11, and 12); Day 17: pre-dose and 0.25, 0.5, 1.5, 2, 2.5, 3, 5, 7, 9, 12, 24, 36, 48, 72, and 168 h post dose. CYPD6-PM Cohort: Day 1: pre-dose and 0.25, 0.5, 1, 1.5, 2, 2.5, 3, 4, 6, 8, 12, 16, 24, 36, 48, 72, 96, 216, 312, and 552 h post dose. Food-Effect Cohort: Day 1: pre-dose and 0.25, 0.5, 1, 1.5, 2, 2.5, 3, 4, 6, 8, 12, 16, 24, 36, 48, 72, 96, 144, and 216 h post dose. Standard non-compartmental methods were used to calculate PK parameters using Phoenix® WinNonlin® Version 7.0; actual sample collection times were utilized.

[3] = Phase 1 plasma pharmacokinetics, single-ascending dose (SAD) cohorts; conditions: for AUC24 / Cmax / AUCinf / CL/F / t1/2 / Tmax: SAD; for CL/F / t1/2: mean ± SD; for Tmax: median (range)
Procedure: Single-ascending dose (SAD) cohorts. The SAD portion of the study used a randomized, double-blind, placebo-controlled, sequential, escalating-dose design, in which participants received single-ascending oral doses of the study drug. Seven cohorts were dosed in sequence (FIG. 2).
as §1
Statistical Analysis. The sample size chosen for this study was based upon precedent set by other first-in-human PK studies of similar nature and was not based on power calculations. […] All participants who received ≥1 dose of the study drug and had ≥1 evaluable PK plasma profile were included in the PK analysis set. […]

[4] = food-effect cohort, Fasted, n = 4
[5] = food-effect cohort, Fasted, n = 10
[6] = food-effect cohort, Fed, n = 12
[7] = CYP2D6 poor metabolizers, geometric mean, n = 7
[8] = CYP2D6 poor metabolizers, mean ± SD, n = 7
[9] = single oral 1 mg, geometric mean (geometric CV %), n = 6
[10] = single oral 3 mg, geometric mean (geometric CV %), n = 6
[11] = single oral 25 mg, geometric mean (geometric CV %), n = 6
[12] = single oral 40 mg, geometric mean (geometric CV %), n = 6
[13] = single oral 50 mg, geometric mean (geometric CV %), n = 11

## CCc1nc(-c2ccc3c(c2)CC[C@H]3NC(=O)c2cnn(C)c2)no1 [aficamten, (R)—N-(5-(5-ethyl-1,2,4-oxadiazol-3-yl)-2,3-dihydro-1H-inden-1-yl)-1-methyl-1H-pyrazole-4-carboxamide]
[1]; fed (high-fat breakfast) versus fasted
  effect of food on pharmacokinetics: Neither food nor CYP2D6-PM phenotype had a clinically meaningful impact; also recorded: little effect on AUC; also recorded: no significant effect of food
[1]; fed versus fasted
  increase in Cmax when taken with food: approximately 30%
[1]; [4]
  AUCinf: 3674 ng·h/mL
  CL/F: 2.8 ± 0.6 L/h
  t1/2: 84.4 ± 16.4 h
[1]; [5]
  AUC24: 601 (33) ng · h/ml
  Cmax: 50.6 ng/mL
[1]; food-effect cohort, Fasted, median, n = 10
  Tmax: 2.3 h
[1]; food-effect cohort, Fed, n = 7
  AUCinf: 3413 ng·h/mL
  CL/F: 3.1 ± 0.9 L/h
  t1/2: 78.0 ± 8.1 h
[1]; [6]
  AUC24: 631 (25) ng · h/ml
  Cmax: 65.0 ng/mL
[2]; [7]
  AUC24: 495 ng·h/mL
  AUCinf: 2966 ng·h/mL
  Cmax: 57.3 ng/mL
[2]; [8]
  CL/F: 3.6 ± 1.4 L/h
  t1/2: 110 h
[2]; versus extensive metabolizers
  impact of CYP2D6-PM phenotype on pharmacokinetics: Neither food nor CYP2D6-PM phenotype had a clinically meaningful impact; also recorded: did not appear to have reduced clearance
[3]; SAD cohorts
  maximum time to maximum observed concentration across all participants: 4.0 h
[3]; [9]
  AUC24: 50 (20) ng · h/ml
  Cmax: 5.8 (38.4) ng/ml
[3]; single oral 3 mg, geometric mean (geometric CV %), n = 5
  AUCinf: 823 (61) ng · h/ml
[3]; [10]
  AUC24: 174 (27) ng · h/ml
  Cmax: 26.1 (82.4) ng/ml
[3]; single oral 3 mg, n = 5
  CL/F: 4.2 ± 3.1 L/h
  t1/2: 75.1 ± 21.8 h
[3]; single oral 3 mg, n = 6
  Tmax: 1.3 (0.5, 2.6) h
[3]; single oral 10 mg (extensive metabolizers), geometric mean (geometric CV %), n = 6
  AUC24: 679 ng·h/mL
[3]; single oral 10 mg (extensive metabolizers), n = 4
  t1/2: 84.7 ± 17.7 h
[3]; single oral 10 mg, geometric mean (geometric CV %), n = 4
  AUCinf: 3,434 (24) ng · h/ml
[3]; single oral 10 mg, geometric mean (geometric CV %), n = 6
  Cmax: 70.5 (69.0) ng/ml
[3]; single oral 10 mg, n = 4
  CL/F: 3.0 ± 0.7 L/h
[3]; single oral 10 mg, n = 6
  Tmax: 2.8 (0.5, 3.0) h
[3]; [11]
  AUC24: 1,493 (15) ng · h/ml
  AUCinf: 7,113 (15) ng · h/ml
  Cmax: 192.6 (23.3) ng/ml
[3]; single oral 25 mg, n = 6
  CL/F: 3.6 ± 0.5 L/h
  Tmax: 1.8 (0.5, 4.0) h
[3]; single oral 40 mg, geometric mean (geometric CV %), n = 5
  AUCinf: 11,860 (20) ng · h/ml
[3]; [12]
  AUC24: 2,532 (13) ng · h/ml
  Cmax: 383.2 (67.9) ng/ml
[3]; single oral 40 mg, n = 4
  t1/2: 79.2 ± 18.5 h
[3]; single oral 40 mg, n = 5
  CL/F: 3.4 ± 0.6 L/h
[3]; single oral 50 mg, geometric mean (geometric CV %), n = 9
  AUCinf: 13,740 (35) ng · h/ml
[3]; [13]
  AUC24: 2,833 (26) ng · h/ml
  Cmax: 359.4 (38.9) ng/ml
[3]; single oral 50 mg, n = 9
  CL/F: 3.8 ± 1.1 L/h
  t1/2: 80.4 ± 14.9 h
[3]; single oral 50 mg, n = 11
  Tmax: 1.0 (0.5, 2.5) h
[3]; single oral 75 mg, n = 1
  Tmax: 0.5 (0.5, 0.5) h
  AUC24: 4,556 (—) ng · h/ml
  Cmax: 1,220 (—) ng/ml
[3]; single oral doses between 1 mg and 50 mg
  dose proportionality of Cmax and exposure (AUC24): dose-proportional; also recorded: linear kinetics
